Here are results for 10 compounds from ChEMBL document CHEMBL1201862, “PubChem BioAssay data set” (2004).

Test systems include HCT-116; HCT-15; HOP-62; Hs-578T; LOX IMVI; MCF7; MDA-MB-231; MDA-N; NCI-H460; NCI-H522; NCI/ADR-RES; OVCAR-3; PC-3; RPMI-8226; SF-295; SK-MEL-28; SK-MEL-2; TK-10; UACC-257; UO-31.
Holding throughout (experiment): NCI anticancer screen, dose series, 48 h

The structures appear in SMILES notation.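 Compound exposure: 48 hours, 5 concentrations, 96-well plates. At the GI50, growth is halved.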 Activity calls are given as the source filed them. No stated cut-off is given here; in the data, active = GI50 up to about 1.1 µM and inactive = higher. Where only a bound is given, the exact number is not on record here.

As for `O=C(SCc1cccc2ccccc12)c1ccc(Cl)cc1`, the GI50 in the experiment with HCT-116 was 66.1 µM (inactive); with HCT-15 it was 50.9 µM; with HOP-62, > 100 µM (inactive); with Hs-578T it was 79.3 µM (inactive); in the experiment on LOX IMVI it was > 100 µM (inactive); in the experiment on MCF7 it was > 100 µM (inactive). Further, the GI50 with MDA-MB-231 is > 100 µM (inactive); in the experiment with MDA-N, > 100 µM (inactive); in the experiment on NCI-H460, 49 µM (inactive); with NCI-H522, 45.8 µM (inactive); in the experiment with NCI/ADR-RES, > 100 µM (inactive); with OVCAR-3, 44.4 µM (inactive). For the same compound, the GI50 is > 100 µM (inactive) in the experiment on PC-3; 46.9 µM (inactive) in the experiment on RPMI-8226; > 100 µM (inactive) in the experiment on SF-295; > 100 µM (inactive) in the experiment on SK-MEL-28; > 100 µM (inactive) in the experiment on SK-MEL-2; > 100 µM (inactive) with TK-10. Further, the results for the GI50 in the experiment with UACC-257 and in the experiment on UO-31 were 76.7 µM (inactive) and > 100 µM (inactive), respectively.

As to `O=C(OCc1ccccc1)c1ccc(NCc2cc(O)ccc2O)cc1`, the GI50 with HCT-116 is 1.51 µM (inactive); in the experiment with HCT-15 it was 1.03 µM; in the experiment on HOP-62, 7.43 µM (inactive); with Hs-578T, 1.51 µM (inactive); in the experiment on LOX IMVI it was 1.14 µM (inactive); with MCF7 it was 2.01 µM (inactive). The GI50 is 1.91 µM (inactive) in the experiment with MDA-MB-231; 1.56 µM (inactive) in the experiment with MDA-N; 3.42 µM (inactive) with NCI-H460; 0.35 µM (active) with NCI-H522; 1.47 µM (inactive) in the experiment with NCI/ADR-RES; 1 µM (active) with OVCAR-3. Besides, the GI50 in the experiment on PC-3 was 1.36 µM (inactive); with RPMI-8226, 0.372 µM (active); with SF-295, 6.12 µM (inactive); in the experiment with SK-MEL-28 it was 1.63 µM (inactive); with SK-MEL-2, 2.05 µM (inactive); in the experiment on TK-10 it was 1.95 µM (inactive). The GI50 was 1.6 µM (inactive) in the experiment with UACC-257 and 1.32 µM (inactive) in the experiment on UO-31.

For `COC(=O)[C@H](Cc1ccccc1)NP(=O)(O)OCC1OC(n2cc(C)c(=O)[nH]c2=O)CC1N=[N+]=[N-]` (stereo not given in full), the GI50 in the experiment with HCT-116 was > 100 µM (inactive); in the experiment with HCT-15, over 100 µM; with HOP-62 it was > 100 µM (inactive); in the experiment with Hs-578T, > 100 µM (inactive); in the experiment on LOX IMVI, > 100 µM (inactive); with MCF7, > 100 µM (inactive). Moreover, the GI50 in the experiment with MDA-MB-231, in the experiment on MDA-N, with NCI-H460, with NCI-H522, in the experiment with NCI/ADR-RES and in the experiment with OVCAR-3 was > 100 µM (inactive) in each case. The GI50 in the experiment on PC-3, with RPMI-8226, in the experiment on SF-295, with SK-MEL-28, with SK-MEL-2 and in the experiment on TK-10 was > 100 µM (inactive) each time. The GI50 with UACC-257 and with UO-31 was > 100 µM (inactive) each time.

Regarding `O=C(N/N=C/c1ccccc1)c1cccc2nc3ccccc3nc12`, the GI50 in the experiment with HCT-116 is > 100 µM (inactive); with HCT-15, 9.66 µM; in the experiment with HOP-62 it was 4.15 µM (inactive); in the experiment on Hs-578T, 18.7 µM (inactive); in the experiment with LOX IMVI it was 29.9 µM (inactive); with MCF7 it was > 45 µM (inactive). Also, the GI50 with MDA-MB-231 is > 100 µM (inactive); with MDA-N it was 54.2 µM (inactive); in the experiment on NCI-H460 it was 3.5 µM (inactive); in the experiment with NCI-H522, 44.8 µM (inactive); in the experiment on NCI/ADR-RES it was > 100 µM (inactive); in the experiment with OVCAR-3, > 100 µM (inactive). The GI50 in the experiment on PC-3 is > 100 µM (inactive); in the experiment with RPMI-8226 it was > 100 µM (inactive); in the experiment on SF-295, 17.1 µM (inactive); in the experiment with SK-MEL-28, > 100 µM (inactive); with SK-MEL-2, > 100 µM (inactive); with TK-10, > 100 µM (inactive). Also, the GI50 in the experiment on UACC-257 and with UO-31 was > 100 µM (inactive) throughout.

In the case of `O=C(O)CNC(=O)C1NC(C(F)(F)F)(C(F)(F)F)OC1(C(F)(F)F)C(F)(F)F` (stereo not given), the GI50 in the experiment with HCT-116 is > 100 µM (inactive); in the experiment with HCT-15, over 100 µM; in the experiment with HOP-62, > 100 µM (inactive); in the experiment with Hs-578T, > 100 µM (inactive); in the experiment with LOX IMVI, > 100 µM (inactive); in the experiment on MCF7, > 100 µM (inactive). For the same compound, the GI50 in the experiment on MDA-MB-231, in the experiment with MDA-N, with NCI-H460, in the experiment on NCI-H522, with NCI/ADR-RES and with OVCAR-3 was > 100 µM (inactive) each time. The GI50 is > 100 µM (inactive) with PC-3; > 100 µM (inactive) in the experiment with RPMI-8226; 92.3 µM (inactive) in the experiment with SF-295; > 100 µM (inactive) with SK-MEL-28; > 100 µM (inactive) with SK-MEL-2; > 100 µM (inactive) in the experiment on TK-10. Besides, the GI50 in the experiment on UACC-257 and in the experiment with UO-31 was > 100 µM (inactive) each time.

For the compound `CC1(Br)Cc2ccccc2C1=O` (stereo not given), the GI50 is 3.86 µM (inactive) in the experiment with HCT-116; 7.78 µM with HCT-15; 15.3 µM (inactive) in the experiment with HOP-62; 6.79 µM (inactive) with Hs-578T; 3.09 µM (inactive) in the experiment with LOX IMVI; 3.73 µM (inactive) with MCF7. Further, the GI50 was 6.92 µM (inactive) in the experiment with MDA-MB-231; 3.92 µM (inactive) in the experiment with MDA-N; > 10 µM (inactive) in the experiment on NCI-H460; 4.14 µM (inactive) in the experiment on NCI-H522; 13.1 µM (inactive) with NCI/ADR-RES; 8.99 µM (inactive) in the experiment on OVCAR-3. Moreover, the GI50 was 10.3 µM (inactive) in the experiment with PC-3; 5.65 µM (inactive) with RPMI-8226; 18.7 µM (inactive) in the experiment on SF-295; 2.29 µM (inactive) in the experiment with SK-MEL-28; 10.1 µM (inactive) in the experiment on SK-MEL-2; 16.1 µM (inactive) with TK-10. Also, the figures for the GI50 in the experiment with UACC-257 and in the experiment on UO-31 were 9.53 µM (inactive) and 6.95 µM (inactive), respectively.

As to `CC(/C=N\NC(=S)N1CCCCC1)=N/NC(=S)N1CCCCC1`, the GI50 in the experiment on HCT-116 was 0.627 µM (active); in the experiment on HCT-15 it was 0.42 µM; in the experiment on HOP-62, 0.991 µM (active); in the experiment with Hs-578T, 1.41 µM (inactive); with LOX IMVI, 0.82 µM (active); in the experiment with MCF7, 1.48 µM (inactive). The GI50 is 2.45 µM (inactive) with MDA-MB-231; 2.89 µM (inactive) in the experiment with MDA-N; 0.358 µM (active) in the experiment on NCI-H460; 1.54 µM (inactive) in the experiment on NCI-H522; 0.759 µM (active) in the experiment on NCI/ADR-RES; 1.53 µM (inactive) in the experiment on OVCAR-3. The GI50 with PC-3 was 0.957 µM (active); in the experiment with RPMI-8226, 2.32 µM (inactive); with SF-295 it was 0.627 µM (active); with SK-MEL-28, 4.49 µM (inactive); in the experiment with SK-MEL-2, 1.28 µM (inactive); in the experiment on TK-10, 2.06 µM (inactive). Further, the GI50 in the experiment with UACC-257 was 2.94 µM (inactive); in the experiment on UO-31, 0.649 µM (active).

Turning to `C/C(=N/NC(=S)Nc1cccc(Cl)c1)c1ccccn1`, the GI50 in the experiment with HCT-116 was < 0.0161 µM (active); in the experiment on HCT-15, 0.0588 µM; in the experiment with HOP-62 it was 0.453 µM (active); with Hs-578T, 0.429 µM (active); in the experiment on LOX IMVI, 0.125 µM (active); with MCF7, 0.0151 µM (active). Besides, the GI50 with MDA-MB-231 is < 0.0172 µM (active); in the experiment with MDA-N, 0.776 µM (active); in the experiment on NCI-H460 it was 0.357 µM (active); in the experiment with NCI-H522, 0.06 µM (active); with NCI/ADR-RES it was < 0.018 µM (active); in the experiment with OVCAR-3, 0.0365 µM (active). Besides, the GI50 with PC-3 is 0.0255 µM (active); with RPMI-8226, 0.029 µM (active); in the experiment with SF-295, 0.366 µM (active); with SK-MEL-28 it was 2.21 µM (inactive); with SK-MEL-2 it was 1.2 µM (inactive); in the experiment on TK-10, 0.322 µM (active). In addition, the GI50 in the experiment with UACC-257 was < 0.0208 µM (active); in the experiment on UO-31 it was 0.269 µM (active).

In the case of `COc1cc2cc3c4cc(OC)c(OC)cc4cc[n+]3c(C)c2cc1OC.O=C([O-])CS(=O)(=O)O`, the GI50 with HCT-116 was > 100 µM (inactive); in the experiment on HCT-15, over 100 µM; in the experiment with HOP-62, 42.8 µM (inactive); with Hs-578T, 20.7 µM (inactive); in the experiment on LOX IMVI, > 100 µM (inactive); in the experiment with MCF7, 72.8 µM (inactive). For the same compound, the GI50 with MDA-MB-231 is 70.5 µM (inactive); in the experiment with MDA-N, 49.4 µM (inactive); in the experiment on NCI-H460, > 100 µM (inactive); with NCI-H522 it was 4.88 µM (inactive); with NCI/ADR-RES, > 100 µM (inactive); in the experiment with OVCAR-3 it was 78.9 µM (inactive). In addition, the GI50 was 74.5 µM (inactive) in the experiment with PC-3; 68.4 µM (inactive) in the experiment with RPMI-8226; > 100 µM (inactive) in the experiment on SF-295; 73.3 µM (inactive) with SK-MEL-28; > 100 µM (inactive) in the experiment with SK-MEL-2; > 100 µM (inactive) in the experiment with TK-10. For the same compound, the GI50 was 39.7 µM (inactive) in the experiment with UACC-257 and > 100 µM (inactive) in the experiment on UO-31.

As for `CCOC(=O)c1[nH]c(Br)c(-c2ccc(Br)cc2)c1Br`, the GI50 in the experiment on HCT-116 was 0.376 µM (active); with HCT-15 it was 0.516 µM; in the experiment with HOP-62, 0.671 µM (active); with Hs-578T it was 0.395 µM (active); with LOX IMVI it was 0.446 µM (active); in the experiment with MCF7, 1.87 µM (inactive). Further, the GI50 with MDA-MB-231 is 1.2 µM (inactive); with MDA-N it was 0.213 µM (active); in the experiment with NCI-H460, 5.25 µM (inactive); with NCI-H522 it was 0.378 µM (active); in the experiment with NCI/ADR-RES, 0.201 µM (active); with OVCAR-3, 0.237 µM (active). For the same compound, the GI50 in the experiment on PC-3 is 0.705 µM (active); in the experiment on RPMI-8226, 6.73 µM (inactive); with SF-295, 0.263 µM (active); in the experiment with SK-MEL-28, 0.366 µM (active); in the experiment with SK-MEL-2, 0.307 µM (active); in the experiment on TK-10 it was 3.23 µM (inactive). The GI50 with UACC-257 is 0.671 µM (active); with UO-31, 1.32 µM (inactive).
